Assay results taken from patent US8536187B2 (Gilead Sciences, Inc., priority 2008, dated 2013).

Tests used:
[1] = system: HCV replicon in human hepatoma Huh-7 cell line; assay: Anti-HCV replicon assay, EC50 (luciferase luminescence); format: cell-based; conditions: Hepatitis C virus, Huh-7, 72 h
Outline: (§1)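 Huh-7 cells carrying HCV replicon (6000/well) incubated with serially diluted compound, 0.5% DMSO final, 3 days at 37° C, 5% CO2. EC50 from luciferase luminescence after 30 min lysis/substrate at room temperature; CC50 from CellTiter-Glo luminescence after 10 min at room temperature.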

[2] = CC50 assay (CellTiter-Glo) in Huh-7 HCV replicon cells; format: cell-based; conditions: human
Outline: as §1

Row | Structure (SMILES) | EC50 [1] | CC50 at 3 days ([2]; Table 2, 3 days incubation) | CC50 at 3 days ([2]; Table 1, 3 days incubation)
1 | CCOc1ccc(-c2ccc3nc(N[C@H]4CCN(C(=O)[C@H](NC(=O)OC)C(C)C)C4)nc(NCC(F)(F)F)c3n2)cc1S(N)(=O)=O [Example 266, methyl (R)-1-((S)-3-(6-(4-ethoxy-3-(aminosulfonyl)phenyl)-4-(2,2,2-trifluoroethylamino)pyrido[3,2-d]pyrimidin-2-ylamino)pyrrolidin-1-yl)-3-methyl-1-oxobutan-2-ylcarbamate] | < 0.1 µM | 1 to 10 µM | –
2 | N#Cc1cc(F)ccc1-c1ccc2nc(NCc3cc(Cl)cc(S(N)(=O)=O)c3)nc(NC3(C(F)(F)F)CC3)c2n1 [Example 100, 3-chloro-5-((6-(2-cyano-4-fluorophenyl)-4-(1-(trifluoromethyl)cyclopropyl-amino)pyrido[3,2-d]pyrimidin-2-ylamino)methyl)benzene-sulfonamide] | < 0.1 µM | 1 to 10 µM | –
3 | C[C@@H](Nc1nc(NC2(C(F)(F)F)CC2)c2nc(-c3cccc(S(C)(=O)=O)c3)ccc2n1)c1ccc(-n2cncn2)cc1 [Example 47, N^2-((R)-1-(4-(1H-1,2,4-triazol-1-yl)phenyl)ethyl)-6-(3-(methylsulfonyl)phenyl)-N^4-(1-(trifluoromethyl)cyclopropyl) pyrido[3,2-d]pyrimidine-2,4-diamine] | < 0.1 µM | 1 to 10 µM | –
4 | Cc1cc(CNc2nc(NC3(C(F)(F)F)CC3)c3nc(-c4ccc(F)cc4)ccc3n2)cc(S(N)(=O)=O)c1 [Example 82, 3-((6-(4-fluorophenyl)-4-(1-(trifluoromethyl)cyclopropyl-amino)pyrido[3,2-d]pyrimidin-2-ylamino)methyl)-5-methylbenzenesulfonamide] | < 0.1 µM | > 10 µM | –
5 | CCOc1ccc(-c2ccc3nc(N[C@H](C)c4ccc(S(N)(=O)=O)cc4)nc(OC4(C)CC4)c3n2)cc1S(N)(=O)=O [Example 264, 4-((R)-1-(6-(4-ethoxy-3-(aminosulfonyl)phenyl)-4-(1-methylcyclopropoxy)pyrido [3,2-d]pyrimidin-2-ylamino)ethyl)benzenesulfonamide] | < 0.1 µM | 1 to 10 µM | –
6 | Cc1cc(S(N)(=O)=O)ccc1[C@H](C)Nc1nc(NC2(C(F)(F)F)CC2)c2nc(-c3ccc(F)cc3)ccc2n1 [Example 108, (S)-4-(1-(6-(4-fluorophenyl)-4-(1-(trifluoromethyl)cyclopropyl-amino)pyrido[3,2-d]pyrimidin-2-ylamino)ethyl)-3-methylbenzene-sulfonamide] | 0.25 to 2 µM | > 10 µM | –
7 | CS(=O)(=O)c1cccc(-c2ccc3nc(NCc4ccc(S(N)(=O)=O)cc4)nc(OC4CC4)c3n2)c1 [Example 22, 4-{[4-Cyclopropoxy-6-(3-methanesulfonyl-phenyl)-pyrido[3,2-d]pyrimidin-2-ylamino]-methyl}-benzenesulfonamide] | < 0.1 µM | – | > 25 µM
8 | COCCNc1nc(NCC(F)(F)F)c2nc(-c3cccc(S(C)(=O)=O)c3)ccc2n1 [Example 139, N^2-(2-methoxyethyl)-6-(3-(methylsulfonyl)phenyl)-N^4-(2,2,2-trifluoroethyl)pyrido [3,2-d]pyrimidine-2,4-diamine] | < 0.1 µM | > 10 µM | –
9 | NS(=O)(=O)c1cc(Cl)cc(CNc2nc(NC3(C(F)(F)F)CC3)c3nc(-c4ccc(C(=O)NC5(C(F)(F)F)CC5)cc4)ccc3n2)c1 [Example 95, 3-chloro-5-((6-(4-(1-(trifluoromethyl)cyclopropyl-aminocarbonyl)phenyl)-4-(1-(trifluoromethyl)cyclopropyl-amino)pyrido[3,2-d]pyrimidin-2-ylamino)methyl)benzene-sulfonamide] | < 0.1 µM | 1 to 10 µM | –
10 | [2H]C([2H])([2H])C([2H])([2H])Oc1ccc(-c2ccc3nc(NCc4ccc(-n5cncn5)cc4)nc(NCC(F)(F)F)c3n2)cn1 [Example 256, N^2-(4-(1H-1,2,4-triazol-1-yl)benzyl)-6-(6-pentadeutero-ethoxypyridin-3-yl)-N^4-(2,2,2-trifluoroethyl)pyrido[3,2-d] pyrimidine-2,4-diamine] | < 0.1 µM | > 10 µM | –
11 | C[C@H](Nc1nc(NCc2ccc(-n3cncn3)cc2)nc2ccc(C#CC3CC3)nc12)C(F)(F)F [Example 292, (S)-N^2-(4-(1H-1,2,4-triazol-1-yl)benzyl)-6-(2-cyclopropyl-ethynyl)-N^4-(1,1,1-trifluoro-propan-2-yl)pyrido[3,2-d] pyrimidine-2,4-diamine] | 0.25 to 2 µM | > 10 µM | –
12 | FC(F)(F)C1(Nc2nc(NCc3cccc(-n4cncn4)c3)nc3ccc(-c4ccc(NC5CC5)nc4)nc23)CC1 [Example 70, N^2-(3-(1H-1,2,4-triazol-1-yl)benzyl)-6-(6-(cyclopropylamino)pyridin-3-yl)-N^4-(1-(trifluoromethyl)cyclopropyl) pyrido[3,2-d]pyrimidine-2,4-diamine] | < 0.1 µM | > 10 µM | –
13 | CS(=O)(=O)Nc1cc(F)cc(CNc2nc(NC3(C(F)(F)F)CC3)c3nc(-c4ccc(F)cc4)ccc3n2)c1 [Example 107, N-(3-fluoro-5-((6-(4-fluorophenyl)-4-(1-(trifluoromethyl)cyclopropyl-amino)pyrido[3,2-d]pyrimidin-2-ylamino)methyl)phenyl)methane-sulfonamide] | 0.25 to 2 µM | > 10 µM | –
14 | C#Cc1ccc2nc(NCc3ccc(-n4cncn4)cc3)nc(N[C@@H](C)C(F)(F)F)c2n1 [Example 291, (S)-N^2-(4-(1H-1,2,4-triazol-1-yl)benzyl)-6-ethynyl-N^4-(1,1,1-trifluoropropan-2-yl)pyrido [3,2-d]pyrimidine-2,4-diamine] | < 0.1 µM | > 10 µM | –
15 | NC(=O)c1ccc(CNc2nc(NC3(C(N)=O)CC3)c3nc(-c4ccc(F)cc4)ccc3n2)cn1 [Example 133, 5-((4-(1-carbamoylcyclo-propylamino)-6-(4-fluorophenyl)pyrido[3,2-d]pyrimidin-2-ylamino)methyl)picolinamide] | 0.1 to 0.25 µM | > 10 µM | –
16 | C#Cc1ccc2nc(N[C@H](C)c3ccc(S(N)(=O)=O)cc3)nc(OC3CC3)c2n1 [Example 294, (R)-4-(1-(4-cyclopropoxy-6-ethynylpyrido[3,2-d]pyrimidin-2-ylamino)ethyl)benzene-sulfonamide] | < 0.1 µM | 1 to 10 µM | –
17 | CS(=O)(=O)c1cc(-c2ccc3nc(NCc4ccc(-n5cncn5)cc4)nc(OC4CC4)c3n2)ccc1OC(F)F [Example 192, N-(4-(1H-1,2,4-triazol-1-yl)benzyl)-4-cyclopropoxy-6-(4-(difluoromethoxy)-3-(methylsulfonyl)phenyl)pyrido [3,2-d]pyrimidin-2-amine] | < 0.1 µM | 1 to 10 µM | –
18 | NS(=O)(=O)c1cc(Cl)cc(CNc2nc(NC3(C(F)(F)F)CC3)c3nc(C#CC4CC4)ccc3n2)c1 [Example 91, 3-chloro-5-((6-(2-cyclopropylethynyl)-4-(1-(trifluoromethyl)cyclopropyl-amino)pyrido[3,2-d]pyrimidin-2-ylamino)methyl)benzene-sulfonamide] | < 0.1 µM | > 10 µM | –
19 | COc1ccc(-c2ccc3nc(NCc4ccc(S(N)(=O)=O)cc4)nc(NCC(F)(F)F)c3n2)cc1S(N)(=O)=O [Example 225, 4-((6-(4-methoxy-3-(aminosulfonyl)phenyl)-4-(2,2,2-trifluoroethylamino)pyrido[3,2-d]pyrimidin-2-ylamino)methyl)benzene-sulfonamide] | < 0.1 µM | > 10 µM | –
20 | COc1ccc(-c2ccc3nc(NCc4cccc(F)c4)nc(NC4(C(F)(F)F)CC4)c3n2)cc1S(C)(=O)=O [Example 105, N^2-(3-fluorobenzyl)-6-(4-methoxy-3-(methylsulfonyl)phenyl)-N^4-(1-(trifluoromethyl)cyclopropyl)pyrido[3,2-d] pyrimidine-2,4-diamine] | < 0.1 µM | > 10 µM | –
21 | CC#Cc1ccc2nc(N[C@H](C)c3ccc(S(N)(=O)=O)cc3)nc(OC3CCC3)c2n1 [Example 310, (R)-4-(1-(4-cyclobutoxy-6-(prop-1-ynyl)pyrido[3,2-d]pyrimidin-2-ylamino)ethyl) benzenesulfonamide] | < 0.1 µM | > 10 µM | –
22 | COc1ccc(-c2ccc3nc(NCc4ccc(S(N)(=O)=O)cc4)nc(NC4(C#N)CC4)c3n2)cn1 [Example 132, 4-((4-(1-cyanocyclopropylamino)-6-(6-methoxypyridin-3-yl)pyrido[3,2-d]pyrimidin-2-ylamino)methyl)benzene-sulfonamide] | < 0.1 µM | > 10 µM | –
23 | CS(=O)(=O)c1cccc(-c2ccc3nc(NCc4ccc(-n5cncn5)cc4)nc(OC4CC4)c3n2)c1 [Example 188, N-(4-(1H-1,2,4-triazol-1-yl)benzyl)-4-cyclopropoxy-6-(3-(methylsulfonyl)phenyl) pyrido[3,2-d]pyrimidin-2-amine] | < 0.1 µM | > 10 µM | –
24 | Cc1ccc(-c2ccc3nc(NCc4cccc(S(C)(=O)=O)c4)nc(NC4(C(F)(F)F)CC4)c3n2)cc1S(C)(=O)=O [Example 34, N^2-(3-(methylsulfonyl)benzyl)-6-(4-methyl-3-(methylsulfonyl)phenyl)-N^4-(1-(trifluoromethyl)cyclopropyl) pyrido[3,2-d]pyrimidine-2,4-diamine] | < 0.1 µM | 1 to 10 µM | –
25 | Fc1cc(-c2ccc3nc(NCc4cccc(-n5cncn5)c4)nc(NC4(C(F)(F)F)CC4)c3n2)cnc1NC1CC1 [Example 62, N^2-(3-(1H-1,2,4-triazol-1-yl)benzyl)-6-(6-(cyclopropylamino)-5-fluoropyridin-3-yl)-N^4-(1-(trifluoromethyl)cyclopropyl) pyrido[3,2-d]pyrimidine-2,4-diamine] | < 0.1 µM | > 10 µM | –
26 | C[C@H](Cn1cncn1)Nc1nc(NCC(F)(F)F)c2nc(C#CC3CC3)ccc2n1 [Example 281, (R)-N^2-(1-(1H-1,2,4-triazol-1-yl)propan-2-yl)-6-(2-cyclopropyl-ethynyl)-N^4-(2,2,2-trifluoro-ethyl)pyrido[3,2-d]pyrimidine-2,4-diamine] | 0.25 to 2 µM | > 10 µM | –
